Results taken from patent publication US20240409647A1, “BISPECIFIC BINDING PROTEINS AGAINST ALARMINS AND USES THEREOF” (SINOMAB BIOSCIENCE LIMITED, priority 2022, published 2024).

Tests used:
[1] = system: ILC2 population in human PBMC; assay: ILC2 cell population in human PBMC culture (flow cytometry); type: cell-based; set-up: key: −: no inhibition; +: weak; ++: moderate; +++: strong inhibition; details: IL-2 (10 unit/mL) and three alarmins (10 ng/ml), 5 days
Source text: While alarmins are known to work in concert to enhance ILC2 and Th2 cell functions such as increase in cell population, steroids such as Dexamethasone (Dex) can negate these effects, resulting in the mitigation of type 2 immune responses [Jia, Yi et al. American Journal Of Respiratory Cell And Molecular Biology, vol. 55, 5 (2016): 675-683]. ILC2 and Th2 cell population can be determined by flow cytometry (BD FACSVerse) following standard procedures known to those skilled in the art.

[2] = target: T1, rhesus monkey IL17RB expressed on HEK293 cells (Macaca mulatta, UniProt H9FWT9); assay: Flow cytometry, SM17 binding to HEK293 transfected with rhesus monkey IL-17RB; details: SM17 1 μg/ml
T1 construct: transfected either with full-length human or rhesus monkey IL-17RB (SinoBiological, Beijing, China); host or cells: HEK293
T1 sequence (H9FWT9 18-502): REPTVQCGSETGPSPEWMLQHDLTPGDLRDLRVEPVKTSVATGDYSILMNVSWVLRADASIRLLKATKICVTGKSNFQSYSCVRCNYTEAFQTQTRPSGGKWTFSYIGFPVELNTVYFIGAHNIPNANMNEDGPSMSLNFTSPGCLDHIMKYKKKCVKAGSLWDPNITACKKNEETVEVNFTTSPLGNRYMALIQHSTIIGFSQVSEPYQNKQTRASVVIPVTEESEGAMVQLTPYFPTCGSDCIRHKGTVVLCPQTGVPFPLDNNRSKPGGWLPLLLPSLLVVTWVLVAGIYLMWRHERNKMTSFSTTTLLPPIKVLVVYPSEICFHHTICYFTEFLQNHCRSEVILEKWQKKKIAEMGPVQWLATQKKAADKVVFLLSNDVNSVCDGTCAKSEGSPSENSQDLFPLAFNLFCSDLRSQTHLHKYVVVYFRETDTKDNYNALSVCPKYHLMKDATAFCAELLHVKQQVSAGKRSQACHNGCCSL
Description: HEK293 cells (ATCC, Manassas, VA) transfected either with full-length human or rhesus monkey IL-17RB (SinoBiological, Beijing, China) were examined for binding to SM17 following standard protocol for flow cytometry. Wild-type HEK293 stained with IgG4 isotype control (Sino Biological) was used as the negative control and for gating purpose. Briefly, HEK293 cells at a density of 3×10^5 cells were seeded into each well of a 6-well plate. On the next day, human or rhesus Il-17RB full length cDNA were first cloned into pCMV3-untagged expression plasmid through standard molecular cloning technique, and then expression plasmids for human or rhesus IL-17RB were transfected into HEK293 cells by lipofection (Lipofectamine 3000 reagent; Thermo Fisher Scientific). Transfected cells were trypsinized, harvested, and fixed with 4% paraformaldehyde (5 minutes). SM17, or human IgG4 control at 1 μg/ml in washing buffer (3% BSA in PBS) were added to the resuspend cells for incubation at RT for 30 min before Alexa Fluor® 647-conjugated goat anti-human IgG specific antibody (1:2000 dilution in washing buffer) (Jackson ImmunoResearch) was added for flow cytometry analysis using the BD FACSVerse cell analyzer (Becton Dickenson, Franklin Lakes, NJ).

Human PBMCs [3] = assay: CCL8 and IFNγ release from human PBMC incubated with IL-12 and IL-33; type: cell-based; set-up: key to Intensity of specific cytokine inhibition, IFNγ / Intensity of specific cytokine inhibition, CCL-8: −: no inhibition; +: weak; ++: moderate; +++: strong inhibition
Description: (§1) Human PBMCs (4×10^5 per group, Ixcells) were incubated with IL-2 (10 unit/mL, PeproTech) and various alarmin/alarmin combinations to mimic the pro-inflammatory cytokines release during allergic diseases. For IL-5 and IL-13 releases, PBMCs were incubated with IL-2 and three alarmins (all 10 ng/ml) for three days. For CCL17 release, PBMC was incubated with TSLP (10 ng/ml) for 1 day. For CCL8 and IFNγ releases, PBMCs were incubated with IL-12 (10 ng/ml, Sino Biological) and IL-33 (10 ng/ml) for 1 day. Cells were pretreated with SM17 (5 μg/ml) or IgG4 isotype control (5 μg/ml) for an hour before the addition of cytokines.
(§2) Supernatants were collected and the cytokine concentration were measured by ELISA kits (R&D systems). These established assays were used to test the potency of and SM17 and bsBps. […] Results were expressed in absolute amount in pg/ml.
(§3) SM17, three different SM17-anti-IL33 bsBps and three different SM17-anti-TSLP bsBps (all at 5 μg/ml) were added to human PBMC cultures under conditions that shall induce the release of IFNγ, CCL8, CCL17 and IL-5 as described in Example 11 above. The levels of different cytokines and chemotactic factors in supernatant obtained in induced PBMC were evaluated using standard ELISA methods.

Human PBMCs [4] = assay: CCL17 release from human PBMC incubated with TSLP; type: cell-based; set-up: key to Intensity of specific cytokine inhibition, CCL-17: −: no inhibition; +: weak; ++: moderate; +++: strong inhibition
Description: as §1, §2, §3

[5] = SM17 5 μg/ml, IL-12 and IL-33 10 ng/ml, 1 day, vs IgG4 isotype control

SM17: humanized anti-IL17RB monoclonal antibody, human IgG4 isotype; HC SEQ ID NO: 32, LC SEQ ID NO: 33
Cell proliferation inhibition, ILC2 [1]: ++ | binding of SM17 to RhIL17RB-HEK293 [2]: 39% | Intensity of specific cytokine inhibition, CCL-8 (Human PBMCs [3]; 5 μg/ml, human PBMC): − | Intensity of specific cytokine inhibition, IFNγ (Human PBMCs [3]; 5 μg/ml, human PBMC): − | CCL8 release (in words) (Human PBMCs [3]; [5]): no inhibitory effects | IFNγ release (in words) (Human PBMCs [3]; [5]): no inhibitory effects | Intensity of specific cytokine inhibition, CCL-17 (Human PBMCs [4]; 5 μg/ml, human PBMC): − | CCL17 release (in words) (Human PBMCs [4]; SM17 5 μg/ml, TSLP 10 ng/ml, 1 day, vs IgG4 isotype control): no inhibitory effects
